Reference: PMC12036814 (Angewandte Chemie (International Ed. in English), 2025)

Legend:
[1] = target: T1, SCARB1 (Homo sapiens, UniProt Q8WTV0); experiment: Microscale thermophoresis (MST) binding
T1 construct: purchased Hölzel Biotech SC1-H82E5
T1 sequence (Q8WTV0 1-552): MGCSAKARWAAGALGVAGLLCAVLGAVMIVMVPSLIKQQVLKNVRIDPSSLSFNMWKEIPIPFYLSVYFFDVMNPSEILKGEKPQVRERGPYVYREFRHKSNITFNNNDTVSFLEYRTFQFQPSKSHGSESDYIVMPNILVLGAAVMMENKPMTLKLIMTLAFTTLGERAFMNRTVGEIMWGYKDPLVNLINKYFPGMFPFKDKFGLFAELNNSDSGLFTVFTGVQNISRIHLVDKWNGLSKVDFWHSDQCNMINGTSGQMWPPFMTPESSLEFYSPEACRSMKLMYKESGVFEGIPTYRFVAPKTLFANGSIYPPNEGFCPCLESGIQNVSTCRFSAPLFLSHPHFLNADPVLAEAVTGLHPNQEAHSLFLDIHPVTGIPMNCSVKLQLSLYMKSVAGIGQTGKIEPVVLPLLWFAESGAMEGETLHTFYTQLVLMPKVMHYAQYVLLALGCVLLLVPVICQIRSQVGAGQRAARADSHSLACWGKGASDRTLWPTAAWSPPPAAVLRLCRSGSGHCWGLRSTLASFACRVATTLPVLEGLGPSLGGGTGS
Method: reaction was terminated by addition of 800 μL EtOAc+0.5% AcOH, 300 μL H2O and 100 μL internal standard (13,14-dihydro-15-ketoprostaglandin -d4, 300 pmol/sample, Cayman Chemical, Ann Arbor, USA, Cat# 10010606). Of the organic phase 600 μL was transferred into a fresh Eppendorf tube and the solvent removed in a SpeedVac. The residue was dissolved in 100 μL acetonitrile/ H2O (1:1) and measured with LC-MS/MS. Gradient: Solvent A = H2O + 0.1% formic acid, solvent B = acetonitrile + 0.5% formic acid, flow rate = 0 .4 mL/min, run length 6 min, gradient = 0 min 30% B, 1 min 30% B, 2 min 31.5% B, 2.1 min 95% B, 4 min 95% B, 4.1 min 30% B, 6 min 30% B. MS settings: Capillary = 3.0 kV, sampling cone = […], extraction cone […], source temperature = 100 °C, desolvat ion temperature = 350 °C, cone gas flow = 50.0 L/h, desolvation gas flow = 650.0 L/h, scan time = 0.250 s, inter-scan time = 0.020 s, mass range = 100 -800 Da. Masses of 15 -ketoprostaglandin (349.2 Da, collision energy = 21.0 eV), 13,14 -dihydro-15-ketoprostaglandin (351.2 Da, collision energy = 18.0 eV) and 13,14-dihydro-15-ketoprostaglandin (355.2 Da, collision energy = 10.0 eV) were set for MRM. The areas under the curve (AUC) were used to quantify 15 -keto-PGE2 and 13,14 -dihydro-15-keto-PGE2 levels by determining peak areas in relation to internal standard […]. The experiment was […]
Microscale thermophoresis (MST) was performed as follows: Monolith His -Tag Labeling Kit RED -tris-NTA 2nd Generation (NanoTemper Technologies, Munich, Germany, Cat# MO -L018) was used for KD determination as recommended by the purchaser. Briefly, SCARB1 ( Hölzel Biotech, Cologne, Germany, Cat# SC1-H82E5) concentration (50 nM) was adjusted in assay buffer and labelled by the RED -tris-NTA dye (100 nM). This mixture was added to compound dilution series (c = 1 mM to 30 nM) and measured using Monolith NT.115 (NanoTemper Technologies, Munich, Germany ). The experiment was performed once and analysed with the MO Affinity Analysis software (NanoTemper).
NUDT1 target validation efforts:
Recombinant NUDT1 expression & purification […]

[2] = target: T2, AIFM1 (Homo sapiens, UniProt O95831); experiment: Gel-based labelling of recombinant AIFM1 spiked into HEK-293 lysate; format: binding; details: 5 μM probe, AIFM1 spiked in HEK-293 lysate
T2 construct: made in house; host or cells: E. coli Rosetta2
T2 sequence (O95831 102-613): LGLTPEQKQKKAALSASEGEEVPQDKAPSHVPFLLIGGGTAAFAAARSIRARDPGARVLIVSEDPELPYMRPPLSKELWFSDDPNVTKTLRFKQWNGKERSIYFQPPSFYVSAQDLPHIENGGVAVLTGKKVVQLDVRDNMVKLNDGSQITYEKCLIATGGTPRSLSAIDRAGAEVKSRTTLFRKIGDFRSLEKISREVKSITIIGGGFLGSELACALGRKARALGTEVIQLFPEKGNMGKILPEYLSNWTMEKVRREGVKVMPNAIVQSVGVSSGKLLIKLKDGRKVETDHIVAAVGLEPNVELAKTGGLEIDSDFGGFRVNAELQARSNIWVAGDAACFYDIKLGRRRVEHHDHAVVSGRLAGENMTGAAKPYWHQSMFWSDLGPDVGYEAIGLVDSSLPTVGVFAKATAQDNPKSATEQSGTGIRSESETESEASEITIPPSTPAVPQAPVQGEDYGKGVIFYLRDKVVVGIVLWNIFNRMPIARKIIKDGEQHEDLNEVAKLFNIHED
Method: AIFM1 expression & purification
Recombinant AIFM1 was expressed in a Rosetta2 E. coli strain. Bacterial growth was conducted in LB media supplemented with riboflavin and FAD shaking at 37°C and 180 rpm. Expression was induced with 1.0 mM IPTG and incubated for further 16 h before harvesting. Cells were harvested on ice in PBS and cell pellets stored at -20°C. Cells were lysed by French press and the 6xHis-tagged constructs were purified by Immobilized Metal Affinity Chromatography using Ni Sepharose (6 Fast Flow, GE). The centrifugation-cleared bacterial lysate was bound to beads in binding buffer (200 mM NaCl, 20 mM Tris/Cl pH = 7.4). […]
For gel-based fluorescence labelling of recombinant AIFM1, 1.7 µM recombinant protein was spiked - in to PBS or PBS -diluted HEK293 cell lysate ( 100 µg per reaction sample). […]
Click Master-mix (8 µL, 100 µM TAMRA-azide, Baseclick, Neuried, Germany, Cat# BCFA-008-10, 500 µM BTTAA ligand, Jena Bioscience, Jena, Germany, CLK -067, 1 mM CuSO4) was added and the CuAAC reaction started by addition of 2 µL of aq. sodium ascorbate (c end= 2 mM). […] Fluorescence scanning was performed using a Las-3000 fluorescence darkbox (Fujifilm, Minato, Japan) with a Fujinon VRF 43LMD Lens, 605DF40 filter and 520 nm EPI excitation wavelength and loading controls were developed with Coomassie stain afterwards. […]

[3] = test system: HEK‐293 cells; experiment: Whole proteome analysis (LC-MS/MS, LFQ) of treated HEK-293 cells; details: 1 µM, 24 h, versus vehicle

Compound	Kd ([1]; acquisition software MO.Control, read-out: binding affinity (Kd)) [µM]	binding to SCARB1 ([1]; aggregation/precipitation at high compound concentrations)	gel-based labelling of recombinant AIFM1 by probe [2]	pattern of downregulated proteins and affected pathways [3]
C#CCCC1(CCN2CCN(c3cc4c(cc3F)c(=O)c(C(=O)O)cn4C3CC3)CC2)N=N1 [Cipro P1]	394	weak binding	strong fluorescent band corresponding to the molecular weight of AIFM1	–
Cc1ccccc1CN1C(=O)C2=C(CCN(Cc3ccccc3)C2)N2CCN=C12 [ONC201]	–	–	–	strikingly similar to Ciprofloxacin treated cells
